This note sets out measurements from publication PMC8462848, “Quinazolin-4(3H)-one based potential multiple tyrosine kinase inhibitors with excellent cytotoxicity” (Journal of Enzyme Inhibition and Medicinal Chemistry, 2021).

T3 sequence (P00533 25-1210): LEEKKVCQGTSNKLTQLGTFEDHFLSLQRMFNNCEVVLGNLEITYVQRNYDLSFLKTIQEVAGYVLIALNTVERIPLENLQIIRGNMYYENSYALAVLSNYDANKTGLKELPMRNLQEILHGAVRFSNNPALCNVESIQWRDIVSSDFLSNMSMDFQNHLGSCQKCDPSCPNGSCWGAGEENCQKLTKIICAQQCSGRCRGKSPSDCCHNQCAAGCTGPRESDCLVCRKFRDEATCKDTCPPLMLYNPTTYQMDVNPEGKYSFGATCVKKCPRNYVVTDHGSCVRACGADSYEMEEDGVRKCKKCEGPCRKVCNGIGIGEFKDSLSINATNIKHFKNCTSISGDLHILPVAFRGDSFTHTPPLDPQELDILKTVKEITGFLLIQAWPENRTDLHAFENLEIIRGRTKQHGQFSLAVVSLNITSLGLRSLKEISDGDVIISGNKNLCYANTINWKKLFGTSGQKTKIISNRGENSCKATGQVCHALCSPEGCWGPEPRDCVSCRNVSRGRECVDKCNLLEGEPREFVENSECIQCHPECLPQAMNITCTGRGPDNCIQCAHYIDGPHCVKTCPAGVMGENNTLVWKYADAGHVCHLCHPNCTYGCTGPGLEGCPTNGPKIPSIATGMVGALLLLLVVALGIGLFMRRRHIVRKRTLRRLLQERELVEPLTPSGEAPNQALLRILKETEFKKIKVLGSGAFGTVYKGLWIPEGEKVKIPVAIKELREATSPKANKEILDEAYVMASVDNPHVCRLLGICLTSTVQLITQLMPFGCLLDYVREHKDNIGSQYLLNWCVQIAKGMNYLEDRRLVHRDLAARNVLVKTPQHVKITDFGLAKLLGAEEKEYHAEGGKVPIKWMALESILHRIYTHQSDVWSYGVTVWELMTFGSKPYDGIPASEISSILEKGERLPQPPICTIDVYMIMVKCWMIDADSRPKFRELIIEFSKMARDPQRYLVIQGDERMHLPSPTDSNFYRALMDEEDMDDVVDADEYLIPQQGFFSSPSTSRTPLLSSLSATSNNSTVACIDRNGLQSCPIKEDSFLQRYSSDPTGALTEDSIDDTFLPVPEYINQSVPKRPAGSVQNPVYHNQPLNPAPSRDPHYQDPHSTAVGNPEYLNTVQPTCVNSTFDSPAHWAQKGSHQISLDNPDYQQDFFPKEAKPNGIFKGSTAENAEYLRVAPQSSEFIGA

For the first experiment, the system named is MCF7 (human breast adenocarcinoma) cells. Nature of the experiment: MTT cytotoxicity assay, MCF7. In kind it is cell-based. The following applies: Homo sapiens, MCF7, mean ± SD of triplicate. How it is done:
(§1) The cytotoxicity of the synthesised quinazolin-4(3H)-ones was evaluated by MTT assay, as previously described. Two cancer cell lines, MCF7 (human breast adenocarcinoma) and A2780 (human ovary adenocarcinoma), were used in this study, which were obtained from the ATCC (Rockville, MD, USA). […] Additionally, compounds were prepared at the same medium to obtain serial dilutions (50, 25, […] and 0.1 µM). […] The media were aspirated, and the formazan crystals were solubilised by adding 150 µL DMSO. Absorbance was read on a multi-plate reader (BioRad) at […]. […] The data were obtained from triplicates and analysed using statistical software.
`CS(=O)(=O)CCNCc1ccc(-c2ccc3ncnc(Nc4ccc(OCc5cccc(F)c5)c(Cl)c4)c3c2)o1` [lapatinib, reference compound] registered an IC50 of 5900 ± 740 nM.

Staying with this experiment, now noted: mean ± SD of triplicate.
On to “2-((5-Chloro-6-methyl-4-oxo-3-phenyl-3,4-dihydroquinazolin-2-yl)thio)acetohydrazide [3e]”, for which 740 ± 230 nM corresponded to half-maximal inhibition (IC50).

Take “Ethyl 2-((5-chloro-6-methyl-4-oxo-3-phenyl-3,4-dihydroquinazolin-2-yl)thio)acetate [2e]”: the IC50 is 14900 ± 990 nM.

The subject of the next experiment is A2780 (human ovary adenocarcinoma) cells. As to the kind of experiment: MTT cytotoxicity assay, A2780. In kind it is cell-based. The conditions noted are these: Homo sapiens, A2780, mean ± SD of triplicate. How it is done:
as §1
Background: Formazan colour is commonly taken as a measure of viable cells.
`CS(=O)(=O)CCNCc1ccc(-c2ccc3ncnc(Nc4ccc(OCc5cccc(F)c5)c(Cl)c4)c3c2)o1` [lapatinib, reference compound] displayed an IC50 of 11100 ± 1030 nM.

The same experiment, now with this note: mean ± SD of triplicate.
As to “2-((5-Chloro-6-methyl-4-oxo-3-phenyl-3,4-dihydroquinazolin-2-yl)thio)acetohydrazide [3e]”, half-maximal inhibition (IC50) required 920 ± 110 nM.

As for `CS(=O)(=O)CCNCc1ccc(-c2ccc3ncnc(Nc4ccc(OCc5cccc(F)c5)c(Cl)c4)c3c2)o1` [lapatinib, reference compound], it took 12100 ± 1030 nM to reach half-maximal inhibition (IC50).

Regarding “Ethyl 2-((5-chloro-6-methyl-4-oxo-3-phenyl-3,4-dihydroquinazolin-2-yl)thio)acetate [2e]”, the IC50 turned out to be 16400 ± 1800 nM.

In a further experiment the target is T1, CDK2/CyclinA2 (Homo sapiens, UniProt P24941).
T1 construct: purchased #79599
As to the kind of experiment: CDK2 Assay Kit, Kinase-Glo MAX luminescence. The conditions noted are these: 0.01 µM; one experimental data. The class given is biochemical. How it is done:
The CDK2 Assay Kit is designed to measure CDK2/CyclinA2 activity for screening and profiling applications, using Kinase-Glo® MAX as a detection reagent. The CDK2 Assay Kit comes in a convenient 96-well format, with enough purified recombinant CDK2/CyclinA2 enzyme, CDK substrate peptide, ATP and kinase assay buffer for 100 enzyme reactions. […] […] The compounds were diluted in 10% DMSO and 5 μl of the dilution was added to a 50 μl reaction so that the final concentration of DMSO was 1% in all of the reactions. All of the enzymatic reactions were conducted at 30 °C for 40 min. The 50 μl reaction mixture contained 40 mM Tris, pH 7.4, 10 mM MgCl2, 0.1 mg/mL BSA, 1 mM DTT, 10 mM ATP, Kinase substrate and the enzyme (CDK2/CyclinA2). After the enzymatic reaction, 50 μl of Kinase-Glo® MAX Luminescence kinase assay solution was added to each reaction and the plates were incubated for 5 min at room temperature. Luminescence signal was measured using a Bio Tek Synergy 2 microplate reader.
Figure S1. Calculation of the IC20 Values of Protein Kinase Enzyme CDK2 for 2f
* All the kinase IC20 (µM) were calculated according to the above equations.
(1 picture or pasted object on this page, not shown here)
On the technique in general: In Kinase-Glo more light means more ATP remaining.
On to `NNC(=O)CSc1nc2ccc(F)cc2c(=O)n1Cc1ccccc1` [3g, 2-((3-Benzyl-6-fluoro-4-oxo-3,4-dihydroquinazolin-2-yl)thio)acetohydrazide], for which the inhibition at 0.01 µM amounted to 14.9%.

The experiment is the same for the next values; noted with them: 0.1 µM; one experimental data.
Regarding `NNC(=O)CSc1nc2ccc(F)cc2c(=O)n1Cc1ccccc1` [3g, 2-((3-Benzyl-6-fluoro-4-oxo-3,4-dihydroquinazolin-2-yl)thio)acetohydrazide], the inhibition at 0.1 µM worked out at 47.1%.

Still in this experiment, the particulars now being: 1 µM; one experimental data.
With `NNC(=O)CSc1nc2ccc(F)cc2c(=O)n1Cc1ccccc1` [3g, 2-((3-Benzyl-6-fluoro-4-oxo-3,4-dihydroquinazolin-2-yl)thio)acetohydrazide], the inhibition at 1 µM worked out at 74.1%.

Still in this experiment, the particulars now being: 10 µM; one experimental data.
With `NNC(=O)CSc1nc2ccc(F)cc2c(=O)n1Cc1ccccc1` [3g, 2-((3-Benzyl-6-fluoro-4-oxo-3,4-dihydroquinazolin-2-yl)thio)acetohydrazide], the inhibition at 10 µM turned out to be 89%.

The target in another experiment is T2, HER2 (Homo sapiens, UniProt P04626).
T2 construct: purchased #40721
T2 sequence (P04626 23-1255): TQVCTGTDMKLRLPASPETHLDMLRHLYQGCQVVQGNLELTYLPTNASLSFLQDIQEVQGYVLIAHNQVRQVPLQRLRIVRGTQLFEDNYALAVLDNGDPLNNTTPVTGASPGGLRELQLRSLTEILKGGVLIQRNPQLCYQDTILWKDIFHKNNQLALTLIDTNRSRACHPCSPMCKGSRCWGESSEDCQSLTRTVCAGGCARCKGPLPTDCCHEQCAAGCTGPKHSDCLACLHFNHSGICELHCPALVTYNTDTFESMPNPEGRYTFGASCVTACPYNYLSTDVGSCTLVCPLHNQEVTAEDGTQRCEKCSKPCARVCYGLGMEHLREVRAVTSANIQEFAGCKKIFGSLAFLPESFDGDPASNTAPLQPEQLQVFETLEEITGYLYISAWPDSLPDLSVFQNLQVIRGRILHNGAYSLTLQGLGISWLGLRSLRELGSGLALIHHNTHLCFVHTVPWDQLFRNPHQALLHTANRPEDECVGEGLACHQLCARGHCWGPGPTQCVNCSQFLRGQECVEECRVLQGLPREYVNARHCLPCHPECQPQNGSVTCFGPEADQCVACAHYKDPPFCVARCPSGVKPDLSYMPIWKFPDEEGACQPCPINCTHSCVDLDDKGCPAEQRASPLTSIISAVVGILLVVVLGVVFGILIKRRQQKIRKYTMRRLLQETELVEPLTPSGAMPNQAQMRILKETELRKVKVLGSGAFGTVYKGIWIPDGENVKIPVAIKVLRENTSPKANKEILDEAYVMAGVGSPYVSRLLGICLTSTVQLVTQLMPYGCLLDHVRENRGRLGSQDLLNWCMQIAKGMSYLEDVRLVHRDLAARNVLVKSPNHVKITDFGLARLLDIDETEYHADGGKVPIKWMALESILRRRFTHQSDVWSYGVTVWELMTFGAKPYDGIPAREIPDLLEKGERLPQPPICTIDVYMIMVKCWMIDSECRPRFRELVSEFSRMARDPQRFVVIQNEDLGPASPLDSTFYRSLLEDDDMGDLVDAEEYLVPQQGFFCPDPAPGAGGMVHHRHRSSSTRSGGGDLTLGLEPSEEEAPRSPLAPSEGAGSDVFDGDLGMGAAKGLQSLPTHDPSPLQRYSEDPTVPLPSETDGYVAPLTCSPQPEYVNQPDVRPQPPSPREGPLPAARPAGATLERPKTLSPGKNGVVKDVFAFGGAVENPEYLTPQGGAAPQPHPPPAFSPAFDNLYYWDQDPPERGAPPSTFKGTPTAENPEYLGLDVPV
Nature of the experiment: HER2 kinase assay kit, Kinase-Glo MAX luminescence. The class given is biochemical. The conditions noted are these: 0.01 µM; one experimental data. How it is done: (§2) The HER2/EGFR/VEGFR2 assay kit is designed to measure HER2/EGFR/VEGFR-2 inhibitory activity for screening and profiling applications, using Kinase-Glo® MAX as a detection reagent. The HER2/EGFR/VEGFR2 assay kit comes in a convenient 96-well format, with enough purified recombinant HER2/EGFR/VEGFR2 enzyme, HER2/EGFR/VEGFR2 substrate, ATP and kinase buffer 1 for 100 enzyme reactions. […] […] The quinazolin-4(3H)-ones were diluted in 10% DMSO and 5 μl of the dilution was added to a 50 μl reaction so that the final concentration of DMSO was 1% in all of the reactions. All of the enzymatic reactions were conducted at 30 °C for 40 min. The 50 μl reaction mixture contained 40 mM Tris, pH 7.4, 10 mM MgCl2, 0.1 mg/mL BSA, 1 mM DTT, 10 mM ATP, kinase substrate and the enzyme HER2 / EGFR / VEGFR2. After the enzymatic reaction, 50 μl of Kinase-Glo® MAX luminescence kinase assay solution was added to each reaction and the plates were incubated for 5 min at room temperature. Luminescence signal was measured using a Bio Tek Synergy 2 microplate reader (For detail enzyme assay protocol and the results, please see supplementary data).
For `NNC(=O)CSc1nc2ccc(F)cc2c(=O)n1Cc1ccccc1` [3g, 2-((3-Benzyl-6-fluoro-4-oxo-3,4-dihydroquinazolin-2-yl)thio)acetohydrazide], the inhibition at 0.01 µM is 23.4%.

For the molecule `CS(=O)(=O)CCNCc1ccc(-c2ccc3ncnc(Nc4ccc(OCc5cccc(F)c5)c(Cl)c4)c3c2)o1` [lapatinib, reference compound], the inhibition at 0.01 µM was determined as 23.3%.

The experiment is the same for the next values; noted with them: 0.1 µM; one experimental data.
Consider `NNC(=O)CSc1nc2ccc(F)cc2c(=O)n1Cc1ccccc1` [3g, 2-((3-Benzyl-6-fluoro-4-oxo-3,4-dihydroquinazolin-2-yl)thio)acetohydrazide], for which the inhibition at 0.1 µM was determined as 23.4%.

On to `CS(=O)(=O)CCNCc1ccc(-c2ccc3ncnc(Nc4ccc(OCc5cccc(F)c5)c(Cl)c4)c3c2)o1` [lapatinib, reference compound], for which the inhibition at 0.1 µM is 23.2%.

The same experiment, now with this note: 1 µM; one experimental data.
Consider `NNC(=O)CSc1nc2ccc(F)cc2c(=O)n1Cc1ccccc1` [3g, 2-((3-Benzyl-6-fluoro-4-oxo-3,4-dihydroquinazolin-2-yl)thio)acetohydrazide], for which the inhibition at 1 µM turned out to be 83.8%.

Regarding `CS(=O)(=O)CCNCc1ccc(-c2ccc3ncnc(Nc4ccc(OCc5cccc(F)c5)c(Cl)c4)c3c2)o1` [lapatinib, reference compound], the inhibition at 1 µM was found to be 84.3%.

The same experiment, now with this note: 10 µM; one experimental data.
With `NNC(=O)CSc1nc2ccc(F)cc2c(=O)n1Cc1ccccc1` [3g, 2-((3-Benzyl-6-fluoro-4-oxo-3,4-dihydroquinazolin-2-yl)thio)acetohydrazide], the inhibition at 10 µM is 94.8%.

With `CS(=O)(=O)CCNCc1ccc(-c2ccc3ncnc(Nc4ccc(OCc5cccc(F)c5)c(Cl)c4)c3c2)o1` [lapatinib, reference compound], the inhibition at 10 µM turned out to be 92.2%.

The same experiment, now with this note: mean ± SD of triplicate.
Consider `NNC(=O)CSc1nc2ccc(F)cc2c(=O)n1Cc1ccccc1` [3g, 2-((3-Benzyl-6-fluoro-4-oxo-3,4-dihydroquinazolin-2-yl)thio)acetohydrazide], for which the IC50 is 112 ± 16 nM.

Another experiment addresses T3, EGFR (Homo sapiens, UniProt P00533).
T3 construct: purchased #40321
As to the kind of experiment: EGFR kinase assay kit, Kinase-Glo MAX luminescence. The class given is biochemical. The conditions noted are these: 0.01 µM; one experimental data. How it is done: as §2
`NNC(=O)CSc1nc2ccc(F)cc2c(=O)n1Cc1ccccc1` [3g, 2-((3-Benzyl-6-fluoro-4-oxo-3,4-dihydroquinazolin-2-yl)thio)acetohydrazide]: the inhibition at 0.01 µM amounted to 11.7%.

The experiment is the same for the next values; noted with them: 0.1 µM; one experimental data.
With `NNC(=O)CSc1nc2ccc(F)cc2c(=O)n1Cc1ccccc1` [3g, 2-((3-Benzyl-6-fluoro-4-oxo-3,4-dihydroquinazolin-2-yl)thio)acetohydrazide], the inhibition at 0.1 µM amounted to 40.3%.

The experiment is the same for the next values; noted with them: 1 µM; one experimental data.
Take `NNC(=O)CSc1nc2ccc(F)cc2c(=O)n1Cc1ccccc1` [3g, 2-((3-Benzyl-6-fluoro-4-oxo-3,4-dihydroquinazolin-2-yl)thio)acetohydrazide]: the inhibition at 1 µM turned out to be 81.3%.

The experiment is the same for the next values; noted with them: 10 µM; one experimental data.
As for `NNC(=O)CSc1nc2ccc(F)cc2c(=O)n1Cc1ccccc1` [3g, 2-((3-Benzyl-6-fluoro-4-oxo-3,4-dihydroquinazolin-2-yl)thio)acetohydrazide], the inhibition at 10 µM is 94%.

Staying with this experiment, now noted: mean ± SD of triplicate.
Take `NNC(=O)CSc1nc2ccc(F)cc2c(=O)n1Cc1ccccc1` [3g, 2-((3-Benzyl-6-fluoro-4-oxo-3,4-dihydroquinazolin-2-yl)thio)acetohydrazide]: the IC50 came out at 221 ± 14 nM.

Another experiment deals with T4, VEGFR2 (Homo sapiens, UniProt P35968).
T4 construct: purchased #40325
T4 sequence (P35968 20-1356): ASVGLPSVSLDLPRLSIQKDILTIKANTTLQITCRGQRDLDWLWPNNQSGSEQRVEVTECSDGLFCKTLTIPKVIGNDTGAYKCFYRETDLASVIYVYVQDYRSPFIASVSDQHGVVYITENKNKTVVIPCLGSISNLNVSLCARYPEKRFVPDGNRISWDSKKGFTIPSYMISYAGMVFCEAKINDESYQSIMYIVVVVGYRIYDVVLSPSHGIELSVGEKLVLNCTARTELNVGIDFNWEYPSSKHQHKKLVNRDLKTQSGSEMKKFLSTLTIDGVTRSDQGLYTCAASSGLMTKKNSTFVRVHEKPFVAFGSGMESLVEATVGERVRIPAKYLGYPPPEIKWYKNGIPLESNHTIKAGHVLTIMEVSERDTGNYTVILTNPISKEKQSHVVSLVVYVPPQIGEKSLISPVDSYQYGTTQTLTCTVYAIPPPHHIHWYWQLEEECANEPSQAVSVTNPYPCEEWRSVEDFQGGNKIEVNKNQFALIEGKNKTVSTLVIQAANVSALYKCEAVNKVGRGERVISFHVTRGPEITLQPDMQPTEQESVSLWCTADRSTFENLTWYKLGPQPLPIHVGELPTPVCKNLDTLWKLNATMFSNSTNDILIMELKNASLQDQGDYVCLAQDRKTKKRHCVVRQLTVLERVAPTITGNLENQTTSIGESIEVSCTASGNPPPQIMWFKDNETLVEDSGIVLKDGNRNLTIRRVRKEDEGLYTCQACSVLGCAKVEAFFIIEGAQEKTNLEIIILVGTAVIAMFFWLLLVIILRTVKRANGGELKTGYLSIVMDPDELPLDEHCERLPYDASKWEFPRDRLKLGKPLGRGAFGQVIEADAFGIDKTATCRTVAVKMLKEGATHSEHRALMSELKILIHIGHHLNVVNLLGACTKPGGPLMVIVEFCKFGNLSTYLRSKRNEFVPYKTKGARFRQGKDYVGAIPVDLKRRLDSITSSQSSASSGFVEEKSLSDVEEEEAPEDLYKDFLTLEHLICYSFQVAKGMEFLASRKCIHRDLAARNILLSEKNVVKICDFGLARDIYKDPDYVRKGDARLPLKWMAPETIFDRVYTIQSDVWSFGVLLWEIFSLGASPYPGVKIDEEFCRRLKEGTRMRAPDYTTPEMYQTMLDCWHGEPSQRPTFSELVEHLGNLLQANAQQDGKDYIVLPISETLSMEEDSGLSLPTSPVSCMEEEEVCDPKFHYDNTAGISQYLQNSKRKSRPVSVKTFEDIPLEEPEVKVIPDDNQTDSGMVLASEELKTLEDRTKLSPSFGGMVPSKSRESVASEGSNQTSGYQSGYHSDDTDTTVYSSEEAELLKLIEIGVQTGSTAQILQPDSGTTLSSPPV
Nature of the experiment: VEGFR2 kinase assay kit, Kinase-Glo MAX luminescence. In kind it is biochemical. The following applies: 0.01 µM; one experimental data; read-out: % Inhibition VEGFR-2. How it is done: as §2
Regarding `NNC(=O)CSc1nc2ccc(F)cc2c(=O)n1Cc1ccccc1` [3g, 2-((3-Benzyl-6-fluoro-4-oxo-3,4-dihydroquinazolin-2-yl)thio)acetohydrazide], the inhibition at 0.01 µM was found to be 3.73%.

The experiment is the same for the next values; noted with them: 0.1 µM; one experimental data; read-out: % Inhibition VEGFR-2.
Take `NNC(=O)CSc1nc2ccc(F)cc2c(=O)n1Cc1ccccc1` [3g, 2-((3-Benzyl-6-fluoro-4-oxo-3,4-dihydroquinazolin-2-yl)thio)acetohydrazide]: the inhibition at 0.1 µM worked out at 40.9%.

The same experiment, now with this note: 1 µM; one experimental data; read-out: % Inhibition VEGFR-2.
As to `NNC(=O)CSc1nc2ccc(F)cc2c(=O)n1Cc1ccccc1` [3g, 2-((3-Benzyl-6-fluoro-4-oxo-3,4-dihydroquinazolin-2-yl)thio)acetohydrazide], the inhibition at 1 µM came to 71.9%.

Staying with this experiment, now noted: 10 µM; one experimental data; read-out: % Inhibition VEGFR-2.
Take `NNC(=O)CSc1nc2ccc(F)cc2c(=O)n1Cc1ccccc1` [3g, 2-((3-Benzyl-6-fluoro-4-oxo-3,4-dihydroquinazolin-2-yl)thio)acetohydrazide]: the inhibition at 10 µM came out at 90.3%.

Staying with this experiment, now noted: mean ± SD of triplicate.
For `NNC(=O)CSc1nc2ccc(F)cc2c(=O)n1Cc1ccccc1` [3g, 2-((3-Benzyl-6-fluoro-4-oxo-3,4-dihydroquinazolin-2-yl)thio)acetohydrazide], the IC50 came to 294 ± 11 nM.

For the next experiment, the target named is T1, CDK2/CyclinA2. Nature of the experiment: CDK2 Assay Kit, Kinase-Glo MAX luminescence. In kind it is biochemical. The conditions noted are these: mean ± SD of triplicate.
Turning to `NNC(=O)CSc1nc2ccc(F)cc2c(=O)n1Cc1ccccc1` [3g, 2-((3-Benzyl-6-fluoro-4-oxo-3,4-dihydroquinazolin-2-yl)thio)acetohydrazide], inhibition was half-maximal at 207 ± 17 nM (IC50).

By IC50 is commonly meant the concentration that inhibits the measured activity by half. Usually inhibition stands for how much of the control response was suppressed.
